From patent EP4745145A1, “SALT OF THIAZOLOPYRAZINE COMPOUND OR CRYSTAL THEREOF AND USE THEREOF” (Simcere Zaiming Pharmaceutical Co., Ltd., priority 2023, dated 2025) come the findings set out here.

One data set relates to DLD-1 parent cells. The data set is described as follows: Inhibition of tumor cell proliferation (CTG, 7 days). The data set is classed as cell-based. The settings on record: Homo sapiens, DLD-1, 168 h; 7 days incubation. The protocol:
(§1) Brief introduction to experimental principle: After the compound was co-incubated with tumor cells for 7 days, the ATP in viable cells was quantified using the CTG kit from Promega to reflect the effect of the compound on tumor cell proliferation.
(§2) Experimental methods: DLD-1 parent cells or DLD-1 BRCA2 (-/-) cells were diluted with an RPMI 1640 medium containing 10% FBS and then added to a 96-well plate (90 µL/well), with the number of cells being 600/well or 1200/well, respectively, and incubated overnight in an incubator at 37 °C with 5% CO2. The test compound was diluted to different concentrations with dimethyl sulfoxide (DMSO) and then added to a 96-well plate, such that, in the reaction system, the compound was serially diluted 4-fold from the final concentration of 25 µM. The concentration range of the compound was from 25 µM to 0.0004 µM, and the final concentration of DMSO was 0.25% v/v. After incubation for 7 days, 50 µL/well of CTG was added, and the mixture was incubated at room temperature for 10 min. The luminescence (Lum) signal value was read using an Envision microplate reader, and the inhibition rate and half inhibitory concentration (IC50) were calculated.
(§3) A Blank well and a DMSO well were set in the experiment. […] Inhibition rate = 100 × (Lummax−Lumcompound)/(Lummax−Lummin)% [formula] wherein Lummax refers to the luminescence signal value of the well containing cells and 0.25% v/v DMSO, and Lumcompound refers to the luminescence signal value of the well containing the compound and cells. Lummin refers to the luminescence signal value of the well containing the medium and 0.25% v/v DMSO.

Another data set concerns DLD-1 BRCA2 (-/-) cells. The data set is described as above. The class given is cell-based. On the procedure: as §1, §2, §3
The subject of a further data set is hepatocytes. The data set is described as follows: Metabolic stability in hepatocytes. The data set is classed as in vitro ADME. The settings on record: hepatocytes of various species. On the procedure:
The metabolic stability of the compounds of the present disclosure in hepatocytes was determined by the following test method.
• 1. Human hepatocytes (Biopredic BQHPCH10), cynomolgus monkey hepatocytes (RILD HP-SXH-02M), Beagle dog hepatocytes (BioIVT M00205), SD rat hepatocytes (BioIVT M00005), and CD-1 mouse hepatocytes (BioIVT M00505) • 2. AOPI stain (Nexcelom 200710-01-01) • 3. Dexamethasone (NIFDC 100129-201506) • 4. DPBS (10×) (Gibco by Life Technologies 2060570) • 5. Fetal bovine serum (FBS) (Corning 35081001) • 6. GlutaMAXTM-1 (100×) (Gibco by Life Technologies 2186980) • 7. HEPES (Sigma RNBJ1276) • 8. Human recombinant insulin (Gibco by Life Technologies 2090407) • 9. Isotonic Percoll (GE Healthcare 10288259) • 10. Verapamil (Sigma MKBV4993V) • 11. Williams' Medium E (Sigma RNBJ3314) • 12. […]
All data were calculated by Microsoft Excel software. The peak area was detected through an extracted ion chromatogram. The in vitro half-life (t1/2) of the compound was determined by performing linear fitting of the natural logarithm of elimination percent of the compound and time.
In vitro half-life (t1/2) was calculated by the slope: in vitro t1/2 = 0.693/k [formula]
The in vitro intrinsic clearance (unit: µL/min/mg protein) was calculated using the following formula: in vitro CLint = k × volume of incubation (μL)/amount of proteins (mg) [formula] […]

A value given as a limit tells only on which side of the number the result lay.

The term IC50 denotes the concentration needed to halve the response being measured. Regarding `COc1ccc(Cl)cc1-c1cc(C)ncc1C(=O)Nc1nc2ncc(-c3ccc(C#N)cc3)nc2s1` [Compound of formula I, 4-(5-chloro-2-methoxyphenyl)-N-[6-(4-cyanophenyl)thiazolo[4,5-b]pyrazin-2-yl]-6-methylnicotinamide], the IC50 in the data set on DLD-1 parent cells was at least 10 µM; in the data set on DLD-1 BRCA2 (-/-) cells (Homo sapiens, DLD-1, 168 h, 7 days incubation) it was under 0.2 µM. Further, the “inhibitory effect on tumor cells with BRCA2 mutation” value in the data set with DLD-1 BRCA2 (-/-) cells is recorded as “good inhibitory effect”. Further, the selectivity result with DLD-1 BRCA2 (-/-) cells was “good selectivity”. Besides, the “metabolic stability in hepatocytes” value with hepatocytes is “metabolically stable”.
